# Data reported in patent US9555029B2 (HIKMA PHARMACEUTICALS, priority 2013, dated 2017).
# Like-named read-outs stand apart in the source and are kept apart here.
# How the values were obtained:
# [1] = Colchicine pharmacokinetics coadministered with voriconazole
# [2] = Colchicine pharmacokinetics coadministered with fluconazole
# Protocol: (§1) The inhibitor dosage form was an oral 200 mg tablet of Diflucan® (fluconazole, from Pfizer).
# (§2) The fluconazole trial differed from the Example 2 protocol as follows.
# [3] = Incidence of adverse effects for colchicine coadministered with voriconazole
# Protocol: (§3) Safety was evaluated through assessment of adverse events, standard laboratory evaluations, physical examination (including vital signs) and ECG. Safety was determined by descriptive statistics.
# [4] = Protocol: as §3, §1, §2
# [5] = Treatment-1 (day 1): colchicine 0.6 mg alone, fasted; cimetidine study; mean
# [6] = Treatment-1 (day 1): colchicine 0.6 mg alone, fasted, voriconazole study, mean
# [7] = Treatment-2 (day 9): colchicine 0.6 mg + voriconazole 200 mg after twice daily days 4-8, fasted, mean
# [8] = Treatment-1 (day 1): colchicine 0.6 mg alone, fasted, fluconazole study, mean
# [9] = Treatment-2 (day 9): colchicine 0.6 mg + fluconazole 200 mg after double dose day 4, once daily days 5-8, fasted, mean
# [10] = co-administration of fluconazole vs colchicine alone
# [11] = of 12 subjects, colchicine + voriconazole
# [12] = of 12 subjects, voriconazole study
# [13] = of 12 subjects, colchicine + fluconazole
# [14] = of 12 subjects, fluconazole study
smiles,measurement,setting,value
"COc1cc2c(c(OC)c1OC)-c1ccc(OC)c(=O)cc1[C@@H](NC(C)=O)CC2 [Colchicine, (S)N-(5,6,7,9-tetrahydro-1,2,3,10-tetramethoxy-9-oxobenzo[alpha]heptalen-7-yl)acetamide]",AUCT/∞,[1]; [6],87.75%
same,Kel,[1]; [6],0.0240 h⁻¹
same,T1/2el,[1]; [6],29.63 h
same,AUCT/∞,[1]; [7],86.14%
same,Kel,[1]; [7],0.0227 h⁻¹
same,T1/2el,[1]; [7],31.30 h
same,Decrease of colchicine Cmax,[1]; coadministration with voriconazole vs colchicine alone,about 20%
same,CL/F,"[1]; male, human, in vivo, 0.6 mg",550 mL/min
same,Tmax,"[1]; male, human, in vivo, 0.6 mg",1.38 h
same,Vd/F,"[1]; male, human, in vivo, 0.6 mg",1350 L
same,AUC(0-t),"[1]; male, human, in vivo, 0.6 mg, AUCT GEOMETRIC LSMEANS, Treatment-1: colchicine 0.6 mg alone, voriconazole study",0.0179 µg·h/mL
same,AUC(0-t),"[1]; male, human, in vivo, 0.6 mg, AUCT, Treatment-1 (day 1): colchicine 0.6 mg alone, fasted, voriconazole study, mean",0.0196 µg·h/mL
same,AUC(0-inf),"[1]; male, human, in vivo, 0.6 mg, AUC∞ GEOMETRIC LSMEANS, Treatment-1: colchicine 0.6 mg alone, voriconazole study",0.0205 µg·h/mL
same,AUC(0-inf),"[1]; male, human, in vivo, 0.6 mg, AUC∞, Treatment-1 (day 1): colchicine 0.6 mg alone, fasted, voriconazole study, mean",0.0224 µg·h/mL
same,Cmax,"[1]; male, human, in vivo, 0.6 mg, Cmax GEOMETRIC LSMEANS, Treatment-1: colchicine 0.6 mg alone, voriconazole study",2.3 ng/mL
same,Cmax,"[1]; male, human, in vivo, 0.6 mg, Cmax, Treatment-1 (day 1): colchicine 0.6 mg alone, fasted, voriconazole study, mean",2.66 ng/mL
same,AUC(0-t),"[1]; male, human, in vivo, AUCT GEOMETRIC LSMEANS, Treatment-2: colchicine 0.6 mg + voriconazole",0.0195 µg·h/mL
same,AUC(0-t),"[1]; male, human, in vivo, AUCT, Treatment-2 (day 9): colchicine 0.6 mg + voriconazole 200 mg after twice daily days 4-8, fasted, mean",0.0207 µg·h/mL
same,AUC(0-inf),"[1]; male, human, in vivo, AUC∞ GEOMETRIC LSMEANS, Treatment-2: colchicine 0.6 mg + voriconazole",0.0227 µg·h/mL
same,AUC(0-inf),"[1]; male, human, in vivo, AUC∞, Treatment-2 (day 9): colchicine 0.6 mg + voriconazole 200 mg after twice daily days 4-8, fasted, mean",0.0241 µg·h/mL
same,Cmax,"[1]; male, human, in vivo, Cmax GEOMETRIC LSMEANS, Treatment-2: colchicine 0.6 mg + voriconazole",1.83 ng/mL
same,Cmax,"[1]; male, human, in vivo, Cmax, Treatment-2 (day 9): colchicine 0.6 mg + voriconazole 200 mg after twice daily days 4-8, fasted, mean",2.06 ng/mL
same,AUCT/∞,[2]; [8],85.33%
same,Kel,[2]; [8],0.0206 h⁻¹
same,T1/2el,[2]; [8],34.05 h
same,AUCT/∞,[2]; [9],83.54%
same,Kel,[2]; [9],0.0204 h⁻¹
same,T1/2el,[2]; [9],34.51 h
same,Increase of mean Cmax for colchicine,[2]; [10],13%
same,Increase of overall exposure of colchicine (AUC),[2]; [10],40%
same,CL/F,"[2]; male, human, in vivo, 0.6 mg",610 mL/min
same,Tmax,"[2]; male, human, in vivo, 0.6 mg",1.25 h
same,Vd/F,"[2]; male, human, in vivo, 0.6 mg",1810 L
same,AUC(0-t),"[2]; male, human, in vivo, 0.6 mg, AUCT GEOMETRIC LSMEANS, Treatment-1: colchicine 0.6 mg alone, fluconazole study",0.0145 µg·h/mL
same,AUC(0-t),"[2]; male, human, in vivo, 0.6 mg, AUCT, Treatment-1 (day 1): colchicine 0.6 mg alone, fasted, fluconazole study, mean",0.0149 µg·h/mL
same,AUC(0-inf),"[2]; male, human, in vivo, 0.6 mg, AUC∞ GEOMETRIC LSMEANS, Treatment-1: colchicine 0.6 mg alone, fluconazole study",0.017 µg·h/mL
same,AUC(0-inf),"[2]; male, human, in vivo, 0.6 mg, AUC∞, Treatment-1 (day 1): colchicine 0.6 mg alone, fasted, fluconazole study, mean",0.0175 µg·h/mL
same,Cmax,"[2]; male, human, in vivo, 0.6 mg, Cmax GEOMETRIC LSMEANS, Treatment-1: colchicine 0.6 mg alone, fluconazole study",1.81 ng/mL
same,Cmax,"[2]; male, human, in vivo, 0.6 mg, Cmax, Treatment-1 (day 1): colchicine 0.6 mg alone, fasted, fluconazole study, mean",1.93 ng/mL
same,AUC(0-t),"[2]; male, human, in vivo, AUCT GEOMETRIC LSMEANS, Treatment-2: colchicine 0.6 mg + fluconazole",0.0204 µg·h/mL
same,AUC(0-t),"[2]; male, human, in vivo, AUCT, Treatment-2 (day 9): colchicine 0.6 mg + fluconazole 200 mg after double dose day 4, once daily days 5-8, fasted, mean",0.0213 µg·h/mL
same,AUC(0-inf),"[2]; male, human, in vivo, AUC∞ GEOMETRIC LSMEANS, Treatment-2: colchicine 0.6 mg + fluconazole",0.0244 µg·h/mL
same,AUC(0-inf),"[2]; male, human, in vivo, AUC∞, Treatment-2 (day 9): colchicine 0.6 mg + fluconazole 200 mg after double dose day 4, once daily days 5-8, fasted, mean",0.0256 µg·h/mL
same,Cmax,"[2]; male, human, in vivo, Cmax GEOMETRIC LSMEANS, Treatment-2: colchicine 0.6 mg + fluconazole",2.05 ng/mL
same,Cmax,"[2]; male, human, in vivo, Cmax, Treatment-2 (day 9): colchicine 0.6 mg + fluconazole 200 mg after double dose day 4, once daily days 5-8, fasted, mean",2.3 ng/mL
same,Total number of adverse events after Treatment-2,[3]; colchicine + voriconazole,2
same,Number of subjects experiencing adverse events after Treatment-2,[3]; [11],1
same,Percent of subjects experiencing adverse events after Treatment-2,[3]; [11],8.3%
same,Number of subjects experiencing adverse events after Treatment-1,[3]; [12],7
same,Percent of subjects experiencing adverse events after Treatment-1,[3]; [12],58.3%
same,Number of adverse events requiring medication after Treatment-1,[3]; voriconazole study,None
same,Number of serious adverse events or deaths,[3]; voriconazole study,None
same,Total number of adverse events after Treatment-1,[3]; voriconazole study,20
same,Total number of adverse events after Treatment-2,[4]; colchicine + fluconazole,3
same,Number of adverse events requiring medication after Treatment-1,[4]; fluconazole study,None
same,Number of serious adverse events or deaths,[4]; fluconazole study,None
same,Total number of adverse events after Treatment-1,[4]; fluconazole study,7
same,Number of subjects experiencing adverse events after Treatment-2,[4]; [13],3
same,Percent of subjects experiencing adverse events after Treatment-2,[4]; [13],25.0%
same,Number of subjects experiencing adverse events after Treatment-1,[4]; [14],3
same,Percent of subjects experiencing adverse events after Treatment-1,[4]; [14],25.0%
same,AUCT/∞,[5],85.29%
same,Kel,[5],0.0201 h⁻¹
